Assay results published in paper PMC9704104, “Towards safer anti-inflammatory therapy: synthesis of new thymol–pyrazole hybrids as dual COX-2/5-LOX inhibitors” (Journal of Enzyme Inhibition and Medicinal Chemistry, 2022).
Where “and” joins values, the source holds several entries; their conditions need not be identical. Equal values may be shown once.

Tests used:
[1] = test system: formalin-induced rat paw oedema; assay: Formalin-induced paw oedema test (acute inflammation model); assay type: in vivo
Protocol: Animals Adult female albino rats weighing 150-250 g were used (Experimental Animal Centre in Alexandria University). All animals accessed to food and water ad libitum and were housed in 12 h dark/light cycle in a controlled condition at 23-250C. They were allowed to acclimatize for 1 week prior to experimentation. Procedures involving animals and their care were conducted in conformity with the Guide for the Care and Use of Laboratory Animals published by US National Institute of Health4 (NIH publication No. 83-23, revised) and following the ethical guidelines of Alexandria University on laboratory animals. In all tests, adequate considerations were adopted to reduce pain or discomfort of animals (Approved by AlexU-IACUC) 3. […]
Formalin-induced paw edema test (acute inflammation model):
A solution of freshly prepared formalin 5% was used as a phlogistic agent. A mark was made on the lateral malleolus of the rats’ paws delineating the injection sites. The initial volume of paw was measured by means of digital calibrated Vernier caliper .
After 45 minutes, 40 μl formalin were injected subcutaneously into the sub plantar tissue of the right hind paw of all groups under light ether anesthesia . An equal volume of saline was injected into the left hind paw and served as internal control for the degree of inflammation in the right hind paw. 5, 6 The volume of paw was measured in different treatment groups, 4 h following the formalin injection and the amount of increase in paw volume (edema volume) was calculated by subtracting the volumes before and 4 h after the injection of formalin. Edema was expressed as an increase in the volume of paw, and the percentage of edema inhibition (or percent protection against inflammation) for each rat and each group was calculated according to the following equation: […]
Where Vt is the mean volume of edema at specific time interval (4 h) and Vo is the mean volume of edema […]
Relative potency of the tested compounds was expressed as % inhibition of edema for the tested compounds

COX-1 = target: T1, COX-1 (Ovis aries, UniProt P05979); assay: In vitro COX-1 inhibitory assay (Cayman colorimetric COX (ovine) inhibitor screening assay kit); assay type: biochemical; details: mean of three replicates ± SD
T1 construct: purchased Cayman chemicals 560131
T1 sequence (P05979 25-600): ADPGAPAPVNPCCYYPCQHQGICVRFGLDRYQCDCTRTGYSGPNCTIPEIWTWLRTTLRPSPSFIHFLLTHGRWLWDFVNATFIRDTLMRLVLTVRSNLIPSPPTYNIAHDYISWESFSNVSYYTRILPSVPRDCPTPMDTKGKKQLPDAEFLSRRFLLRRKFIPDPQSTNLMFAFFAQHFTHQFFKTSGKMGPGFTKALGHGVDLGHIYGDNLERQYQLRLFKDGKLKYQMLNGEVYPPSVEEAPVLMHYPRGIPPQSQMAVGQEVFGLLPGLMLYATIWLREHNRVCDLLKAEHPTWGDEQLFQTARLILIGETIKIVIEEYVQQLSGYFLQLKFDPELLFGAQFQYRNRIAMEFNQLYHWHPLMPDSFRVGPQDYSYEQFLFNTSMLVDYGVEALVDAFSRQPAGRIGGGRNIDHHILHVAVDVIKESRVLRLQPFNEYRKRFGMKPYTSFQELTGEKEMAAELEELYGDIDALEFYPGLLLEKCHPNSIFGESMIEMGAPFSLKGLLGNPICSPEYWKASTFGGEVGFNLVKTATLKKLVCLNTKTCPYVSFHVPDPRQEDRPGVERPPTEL
Protocol: (Page: S20, Supplementary file).
Anti-inflammatory activity
In vitro COX-1 and COX-2 inhibitory assay […]
supplied by Cayman chemicals, Ann Arbor, MI, USA according to reported method 1. The colorimetric COX inhibitor screening assay utilizes the peroxidase component of cyclooxygenase. The peroxidase activity was assayed calorimetrically by monitoring the appearance of oxidized N,N,N',N'-tetramethyl-1,4-phenylenediamine (TMPD) at 590nm. The appearance of reagent was carried out following the instructions […]
The half- maximal inhibitor concentrations (IC50µM) were determined and the selectivity index (SI) values were calculated as IC50 (COX-1)/IC50 (COX-2).
1) Background wells- 160 µL of assay buffer and 10 µL of heme were added to background wells.
2) The 100% Initial activity wells- 150 µL of assay buffer, 10 µL of heme and 10 µL of enzyme (COX-1 or COX-2) were added.
3) Inhibitor well- 150 µL of assay buffer, 10 µL of heme and 10 µL of enzyme were added.
4) 10 µL of inhibitor (3 concentrations) in DMSO was added to the inhibitor wells to yield a final […]
5) 10 µL of solvent (DMSO) was added to the 100% Initial activity wells and background wells.
7) 20 µL of colorimetric substrate solution (TMPD) was added to all wells.
8) 20 µL of arachidonic acid was added to all wells to yield a final concentration of 100 µM.
10) The absorbance was measured at 590 nm using a plate reader.
The calculations were carried out in the following manner:
1) The average absorbance of all samples was determined.
2) The absorbance of background wells was subtracted from absorbance of the 100% Initial activity […]
3) Percent inhibition = (100% Initial activity – Inhibitor wells/ 100% Initial activity)∗ 100 […]
Place the 96-well plate on a shaker for at least five minutes. […]

## Cc1ccc(C(C)C)c(O)c1C=NNC(=O)c1cc(-c2ccccc2)n(-c2ccccc2)n1 [Compound 8d, N'-(2-Hydroxy-3-isopropyl-6-methylbenzylidene)-1,5-diphenyl-1H-pyrazole-3-carbo-hydrazide]
[1]; 4 h, individual rats 1-3, 5 mg/kg orally, 5 mg/kg
  % Inhibition of oedema volume: 58.10% and 50.70% and 53.10%
[1]; 4 h after formalin, individual rats 1-3, 5 mg/kg orally, 5 mg/kg
  Volume of oedema (ml) 4h: 5.95 mL and 6.03 mL and 6.02 mL
[1]; 4 h minus 0, individual rats 1-3, 5 mg/kg orally, 5 mg/kg
  Abs diff.: 0.93 and 1.07 and 1.0
[1]; relative to % inhibition of celecoxib at 4 h, group mean ± SD
  % Relative potency (4h) celecoxib, Mean ± SD: 149.0 ± 17.26%
[1]; relative to % inhibition of celecoxib at 4 h, individual rats 1-3
  % Relative potency (4h) celecoxib: 165.40% and 131.0% and 150.70%
[1]; relative to % inhibition of diclofenac at 4 h, group mean ± SD
  % Relative potency (4h) diclofenac, Mean ± SD: 103.7 ± 16.65%
[1]; relative to % inhibition of diclofenac at 4 h, individual rats 1-3
  % Relative potency (4h) diclofenac: 122.90% and 93.20% and 95.0%
[1]; time 0, individual rats 1-3, 5 mg/kg orally, 5 mg/kg
  Volume of oedema (ml) 0: 5.02 mL and 4.96 mL
COX-1
  IC50: 10.19 ± 0.036 µM
